Laboratory results as given in PubChem BioAssay AID248 (DTP/NCI, 2004).
Where “and” joins values, the source holds several entries; their conditions need not be identical. Identical values can stand only once. Inconclusive results and toxic doses are left out.

Test system: L1210 leukemia ip in BDF1 mice, survival T/C
Assay: NCI In Vivo Anticancer Drug Screen. Data for tumor model L1210 Leukemia (intraperitoneal) in B6D2F1 (BDF1) mice
Conditions: endpoint: mean survival time, higher = longer survival
Summary of the method: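 Value reflects the ratio of survival in compound-treated mice to survival in vehicle-treated controls, with both groups carrying the same transplanted tumor.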

[1] = dose: 100.0 mg/kg/injection, schedule: Q01DX001 (ip), vehicle: saline
[2] = dose: 200.0 mg/kg/injection, schedule: Q01DX001 (ip), vehicle: saline
[3] = dose: 100.0 mg/kg/injection, schedule: Q01DX001 (ip), vehicle: carboxymethylcellulose (CMC)
[4] = dose: 200.0 mg/kg/injection, schedule: Q01DX001 (ip), vehicle: carboxymethylcellulose (CMC)
[5] = dose: 400.0 mg/kg/injection, schedule: Q01DX001 (ip), vehicle: carboxymethylcellulose (CMC)
[6] = dose: 100.0 mg/kg/injection, schedule: Q01DX009 (ip), vehicle: Klucel (hydroxypropylcellulose) (HPC)
[7] = dose: 100.0 mg/kg/injection, schedule: Q04DX003 (ip), vehicle: Klucel (hydroxypropylcellulose) (HPC)
[8] = dose: 200.0 mg/kg/injection, schedule: Q01DX009 (ip), vehicle: Klucel (hydroxypropylcellulose) (HPC)
[9] = dose: 200.0 mg/kg/injection, schedule: Q04DX003 (ip), vehicle: Klucel (hydroxypropylcellulose) (HPC)
[10] = dose: 400.0 mg/kg/injection, schedule: Q01DX009 (ip), vehicle: Klucel (hydroxypropylcellulose) (HPC)
[11] = dose: 400.0 mg/kg/injection, schedule: Q04DX003 (ip), vehicle: Klucel (hydroxypropylcellulose) (HPC)
[12] = dose: 100.0 mg/kg/injection, schedule: Q01DX001 (ip), vehicle: Klucel (hydroxypropylcellulose) (HPC)
[13] = dose: 400.0 mg/kg/injection, schedule: Q01DX001 (ip), vehicle: Klucel (hydroxypropylcellulose) (HPC)
[14] = dose: 50.0 mg/kg/injection, schedule: Q01DX009 (ip), vehicle: water
[15] = dose: 100.0 mg/kg/injection, schedule: Q04DX003 (ip), vehicle: saline with Tween-80
[16] = dose: 200.0 mg/kg/injection, schedule: Q04DX003 (ip), vehicle: saline with Tween-80
[17] = dose: 400.0 mg/kg/injection, schedule: Q04DX003 (ip), vehicle: saline with Tween-80
[18] = dose: 400.0 mg/kg/injection, schedule: Q01DX001 (ip), vehicle: saline

NC(N)=NC(N)=NCCc1ccccc1
T/C [1]: 94 % of control | T/C [2]: 94 % of control

CC1CCOCO1 (stereo unspecified)
T/C (dose: 50.0 mg/kg/injection, schedule: Q01DX001 (ip), vehicle: carboxymethylcellulose (CMC)): 98 % of control | T/C [3]: 98 % of control | T/C [4]: 95 % of control | T/C [5]: 95 % of control

Cc1nc(Cl)cc(=O)[nH]1
T/C [6]: 90 % of control | T/C [7]: 101 % of control | T/C [8]: 97 % of control | T/C [9]: 90 % of control | T/C [10]: 90 % of control | T/C [11]: 91 % of control

[Ni+2].[O-]c1ccccc1C=Nc1ccccc1N=Cc1ccccc1[O-]
T/C (dose: 12.5 mg/kg/injection, schedule: Q01DX009 (ip), vehicle: saline with Tween-80): 93 % of control | T/C (dose: 25.0 mg/kg/injection, schedule: Q01DX009 (ip), vehicle: saline with Tween-80): 93 % of control | T/C (dose: 50.0 mg/kg/injection, schedule: Q01DX009 (ip), vehicle: saline with Tween-80): 93 % of control

O/N=C(\C=N\O)c1ccccc1
T/C (dose: 100.0 mg/kg/injection, schedule: Q01DX009 (sc), vehicle: olive oil, sesame oil, peanut oil): 109 % of control | T/C (dose: 100.0 mg/kg/injection, schedule: Q04DX003 (sc), vehicle: olive oil, sesame oil, peanut oil): 98 % of control | T/C (dose: 200.0 mg/kg/injection, schedule: Q01DX009 (sc), vehicle: olive oil, sesame oil, peanut oil): 112 % of control | T/C (dose: 200.0 mg/kg/injection, schedule: Q04DX003 (sc), vehicle: olive oil, sesame oil, peanut oil): 101 % of control | T/C (dose: 400.0 mg/kg/injection, schedule: Q01DX009 (sc), vehicle: olive oil, sesame oil, peanut oil): 98 % of control

COc1nc(Cl)nc2c1c(C#N)cn2C1OC(CO)C(O)C1O (stereo unspecified)
T/C (dose: 100.0 mg/kg/injection, schedule: Q01DX005 (ip), vehicle: saline): 113 % of control

O=C1OC(O)C(Cl)=C1Cl (stereo unspecified)
T/C (dose: 6.25 mg/kg/injection, schedule: Q04DX002 (ip), vehicle: saline with Tween-80): 107 % of control | T/C (dose: 12.5 mg/kg/injection, schedule: Q04DX002 (ip), vehicle: saline with Tween-80): 103 % of control | T/C (dose: 25.0 mg/kg/injection, schedule: Q04DX002 (ip), vehicle: saline with Tween-80): 114 % of control

CCOc1ccc(NC(=O)N/N=C(\C)CC(C)C)cc1
T/C [12]: 93 % of control | T/C [6]: 99 % of control and 102 % of control | T/C (dose: 100.0 mg/kg/injection, schedule: Q04DX002 (ip), vehicle: Klucel (hydroxypropylcellulose) (HPC)): 95 % of control and 89 % of control | T/C (dose: 200.0 mg/kg/injection, schedule: Q01DX001 (ip), vehicle: Klucel (hydroxypropylcellulose) (HPC)): 89 % of control | T/C [8]: 96 % of control and 101 % of control | T/C (dose: 200.0 mg/kg/injection, schedule: Q04DX002 (ip), vehicle: Klucel (hydroxypropylcellulose) (HPC)): 103 % of control and 110 % of control | T/C [13]: 91 % of control | T/C [10]: 95 % of control and 102 % of control | T/C (dose: 400.0 mg/kg/injection, schedule: Q04DX002 (ip), vehicle: Klucel (hydroxypropylcellulose) (HPC)): 104 % of control and 92 % of control

CCS(=O)(=O)c1ncc2cnccn12
T/C [14]: 98 % of control | T/C (dose: 100.0 mg/kg/injection, schedule: Q01DX009 (ip), vehicle: water): 98 % of control and 101 % of control | T/C (dose: 100.0 mg/kg/injection, schedule: Q04DX003 (ip), vehicle: water): 93 % of control | T/C (dose: 200.0 mg/kg/injection, schedule: Q01DX009 (ip), vehicle: water): 105 % of control and 110 % of control | T/C (dose: 200.0 mg/kg/injection, schedule: Q04DX003 (ip), vehicle: water): 95 % of control

CCCCC(=O)N/N=C\c1ccc(N(CC)CC)cc1
T/C [3]: 95 % of control | T/C [4]: 87 % of control | T/C [5]: 87 % of control

CCOC(=O)C12CCCC(C1=O)[N+](CC)(CC)CC2 (stereo unspecified)
T/C (dose: 75.0 mg/kg/injection, schedule: Q01DX001 (ip), vehicle: saline): 100 % of control | T/C (dose: 150.0 mg/kg/injection, schedule: Q01DX001 (ip), vehicle: saline): 101 % of control

CC(=O)N(c1ccccc1)c1ccc([N+](=O)[O-])cc1[N+](=O)[O-]
T/C [3]: 107 % of control | T/C (dose: 177.0 mg/kg/injection, schedule: Q01DX001 (ip), vehicle: carboxymethylcellulose (CMC)): 94 % of control and 115 % of control | T/C [4]: 96 % of control | T/C (dose: 266.0 mg/kg/injection, schedule: Q01DX001 (ip), vehicle: carboxymethylcellulose (CMC)): 97 % of control and 103 % of control | T/C [5]: 97 % of control and 100 % of control | T/C (dose: 600.0 mg/kg/injection, schedule: Q01DX001 (ip), vehicle: carboxymethylcellulose (CMC)): 100 % of control and 105 % of control

O=C1c2ccccc2-c2cccc3ccc(-c4ccccc4)c1c23
T/C (dose: 75.0 mg/kg/injection, schedule: Q01DX009 (ip), vehicle: Klucel (hydroxypropylcellulose) (HPC)): 105 % of control | T/C [7]: 96 % of control | T/C (dose: 150.0 mg/kg/injection, schedule: Q01DX009 (ip), vehicle: Klucel (hydroxypropylcellulose) (HPC)): 97 % of control | T/C [9]: 96 % of control | T/C (dose: 300.0 mg/kg/injection, schedule: Q01DX009 (ip), vehicle: Klucel (hydroxypropylcellulose) (HPC)): 101 % of control | T/C [11]: 100 % of control

CC(C)CCCC(C)C1CCC2C3CCC(CCO)C(C)(CCO)C3CCC12C (stereo unspecified)
T/C (dose: 100.0 mg/kg/injection, schedule: Q01DX001 (ip), vehicle: saline with Tween-80): 97 % of control | T/C (dose: 200.0 mg/kg/injection, schedule: Q01DX001 (ip), vehicle: saline with Tween-80): 92 % of control | T/C (dose: 400.0 mg/kg/injection, schedule: Q01DX001 (ip), vehicle: saline with Tween-80): 94 % of control

NC(=O)c1[nH]cnc1/N=N/N(CCCl)Cc1ccccc1
T/C [12]: 111 % of control | T/C [6]: 255 % of control | T/C [7]: 123 % of control | T/C (dose: 133.0 mg/kg/injection, schedule: Q01DX001 (ip), vehicle: Klucel (hydroxypropylcellulose) (HPC)): 120 % of control | T/C [8]: 164 % of control | T/C [9]: 221 % of control | T/C [13]: 174 % of control and 195 % of control | T/C [10]: 117 % of control | T/C [11]: 296 % of control

COC(=O)c1ccccc1OC(=S)N(C)C
T/C [15]: 113 % of control | T/C [16]: 103 % of control | T/C [17]: 114 % of control

CNC1(c2ccccc2)CC2CCC(C2)C1O (stereo unspecified)
T/C [1]: 98 % of control | T/C [7]: 101 % of control | T/C [2]: 106 % of control | T/C [9]: 104 % of control | T/C [18]: 101 % of control | T/C [11]: 108 % of control

CC(C)(CO)N=Cc1ccccc1Cl
T/C [1]: 102 % of control | T/C [2]: 100 % of control | T/C [18]: 100 % of control

CC1=C(N)C(=O)C(C)=C(N)C1=O
T/C (dose: 100.0 mg/kg/injection, schedule: Q01DX001 (ip), vehicle: other): 98 % of control | T/C (dose: 200.0 mg/kg/injection, schedule: Q01DX001 (ip), vehicle: other): 88 % of control | T/C (dose: 400.0 mg/kg/injection, schedule: Q01DX001 (ip), vehicle: other): 97 % of control

Cc1cccc(C2=N/C(=C\c3c(O)ccc4ccccc34)C2=O)c1
T/C (dose: 100.0 mg/kg/injection, schedule: Q04DX002 (ip), vehicle: saline): 120 % of control | T/C (dose: 200.0 mg/kg/injection, schedule: Q04DX002 (ip), vehicle: saline): 95 % of control | T/C (dose: 400.0 mg/kg/injection, schedule: Q04DX002 (ip), vehicle: saline): 98 % of control

CC(=O)N(C)c1ccc(NC(=O)C2CCCCC2C(=O)O)cc1 (stereo unspecified)
T/C [6]: 98 % of control | T/C [8]: 95 % of control | T/C [10]: 93 % of control

Cc1ccnc(NS(=O)(=O)c2ccc(N=Nc3cc(N=Nc4ccccc4)c(N)nc3N)cc2)n1
T/C [3]: 105 % of control | T/C [4]: 102 % of control

COc1ccc(OC)c(NC(=O)Oc2ccc(Cl)c(C)c2)c1
T/C [15]: 90 % of control | T/C [16]: 87 % of control | T/C [17]: 93 % of control

COc1cc(C=O)cc(Br)c1O
T/C (dose: 100.0 mg/kg/injection, schedule: Q04DX002 (ip), vehicle: saline with Tween-80): 97 % of control | T/C (dose: 200.0 mg/kg/injection, schedule: Q04DX002 (ip), vehicle: saline with Tween-80): 93 % of control | T/C (dose: 400.0 mg/kg/injection, schedule: Q04DX002 (ip), vehicle: saline with Tween-80): 87 % of control

CCOC(=O)C(C#N)=C1CC(C)OC(C)C1 (stereo unspecified)
T/C [15]: 100 % of control | T/C [16]: 97 % of control | T/C [17]: 103 % of control

O=C(NO)Nc1nc(Cl)c(Cl)nc1Cl
T/C (dose: 25.0 mg/kg/injection, schedule: Q01DX009 (ip), vehicle: water): 94 % of control | T/C [14]: 100 % of control
